Measurements reported in publication PMC12778052 (Science Advances, 2026).

Key:
SCaBER cells [1] = test: [^68Ga]AJ647 binding after EV preincubation, SCaBER cells; assay type: cell-based; details: EV 60 nM preincubated 30 min, P < 0.0001
Experimental: (§1) An FITC analog of EV was made using the manufacturer’s recommended protocol (Thermo Fisher Scientific, no. 46409). Briefly, 1 mg of EV was incubated with FITC-NHS ester at a 5:1 molar ratio overnight at 4°C at 0.1 M borate buffer (pH 8.0). Excess unbound FITC-NHS ester was washed off by performing buffer exchange with 1× PBS using three rounds of ultracentrifugation at 4000g for 10 min (3-kDa molecular weight cutoff filter, Amicon, no. UFC900308). The effect of nonradioactive AJ647 on EV binding to Nectin-4 was assessed by incubating HT1376 cells at varying concentrations (5.4 μM to 0.01 nM using a serial dilution) of AJ647 for 30 min at 4°C. Unbound AJ647 was washed off using 3 ml of cold PBS. Cells were incubated with EV-FITC for 30 min at 4°C. Excess EV-FITC was washed off using 3 ml of cold PBS. The mean fluorescence intensity was measured using a flow cytometer, and data are reported as the percentage of 0 nM AJ647. For the effect of EV on [^68Ga]AJ647 binding, EV was used at concentrations of 90 to 0.04 nM using serial dilutions for 30 min at 4°C. Unbound EV was washed off using cold PBS. Then, cells were incubated with 1 μCi of [^68Ga]AJ647 for an additional 30 min. Excess [^68Ga]AJ647 was washed off three times with cold PBS. Samples were read in an automated gamma counter, and data are reported as the percentage of 1-μCi standard counts.

HT1376 tumor xenograft = test: TE and EV therapy response study, HT1376 xenograft; assay type: in vivo, NSG mice; details: for mice showing a drop in [^68Ga]AJ647 uptake: day 6
Experimental: Mice with tumor volumes of ~100 to 150 mm^3 were injected with ~200 μCi [7.4 megabecquerels (MBq)] of [^68Ga]AJ647 in […] of 5% ethanol in saline intravenously and anesthetized under 2.5% isoflurane. PET-computed tomography (CT) images were acquired at 60 min after radiotracer injection at 5 min per bed in an ARGUS small-animal PET/CT scanner (Sedecal, Madrid, Spain) as described previously (n = 3, unless otherwise noted). PET-MR images were acquired on a simultaneous 7T Bruker PET-MR scanner. Dynamic imaging was conducted to evaluate the PK of [^68Ga]AJ647. [^68Ga]AJ647 was injected (with the help of a catheter) after mice were anesthetized under 2.5% isoflurane on the equipment bed. All PET data were reconstructed using the two-dimensional (2D) ordered subset expectation maximization algorithm and corrected for radioactive decay and dead times. The SUV values were calculated by finding %IA on the basis of a calibration factor obtained from a known radioactive quantity and then normalizing by mice weight. Amide software was used to derive SUV values by drawing the region of interest to closely fit tumors. In particular, MR images were used to identify tumor boundaries manually; these boundaries were transferred to co-registered PET images to derive SUVs. This process was repeated for each mouse individually in a blinded fashion. For the change in accessible Nectin-4 following EV treatment, ΔSUV was calculated by subtracting baseline (pre-treatment) uptake from posttherapy uptake of [^68Ga]AJ647. TE was quantified by normalizing this change by initial SUV in the same subject controls. Image fusion, visualization, and 3D rendering were accomplished using Amira 2020.3.1 (FEI, Hillsboro, OR).
Male NSG (n = 35) mice were inoculated with 4 million HT1376 cells at day 0. On day 23 (average tumor volume, 170 ± 22 mm^3), mice were randomized to receive either saline or a single dose of EV (6 or 15 mg/kg) intravenously (n = 10 for each group). Mice (n = 10) from each dose group were imaged on days 22 (pre-EV) and 29 (6 days post-EV). Saline mice (n = 5) were imaged on day 25 to serve as temporal and treatment control. Mouse body weight and tumor measurements were recorded until saline group tumors reached 1500 mm^3 in average size. Responders and nonresponders were identified using mRECIST for mice published elsewhere ([34]). Briefly, the percentage change in volume relative to the baseline: % tumor volume change (ΔVolt) = 100% × [(Vt − Vinitial)/Vinitial]. BestResponse was the lowest ΔVolt for t ≥ 10 days. For each time t, the average ΔVolt from t = 0 to t was calculated, with the BestAvgResponse defined as the lowest average ΔVolt for t ≥ 10 days. mRECIST, adapted from RECIST21, assigned response labels when both the BestResponse and BestAvgResponse conditions are met at the same time. A modified complete response is defined when BestResponse is less than −95% and BestAvgResponse is less than −40%. A modified partial response is assigned when BestResponse is less than −50% and BestAvgResponse is less than −20%. Modified stable disease is defined when BestResponse is less than 35% and BestAvgResponse is less than 30%. Modified progressive disease is assigned when none of these criteria are satisfied.
We defined modified progressive disease as nonresponders (0 response) and stable disease or better as responders (1 response). […]

T24 cells = test: [^68Ga]AJ647 binding after EV preincubation, T24 cells; assay type: cell-based; details: T24 (Nectin-4-negative); EV 60 nM preincubated 30 min
Experimental: as §1

SCaBER cells [2] = test: In vitro binding of [^68Ga]AJ647 to SCaBER cells; assay type: cell-based; details: 1 × 10^6 cells, ~1 μCi, 30 min, 4°C, means ± SD, n = 4
Experimental: (§2) In vitro binding of [^68Ga]AJ647 to T24, SCaBER, RT112, UC9, UC14, and HT1376 cells was determined by incubating 1 × 10^6 cells with ~1 μCi of [^68Ga]AJ647 for 30 min at 4°C. After incubation, cells were washed three times with ice-cold PBS containing 0.1% Tween 20 and counted on an automated gamma counter. All cell radioactivity uptake studies were performed in quadruplicate for each cell line and repeated three times.

UC9 cells = test: In vitro binding of [^68Ga]AJ647 to UC9 cells; assay type: cell-based; details: 1 × 10^6 cells, ~1 μCi, 30 min, 4°C, means ± SD, n = 4
Experimental: as §2

physchem = assay type: physicochemical; details: pH 7.4
Experimental: The logD (pH 7.4) value was determined according to a literature procedure ([32]). Briefly, a 10-μl solution of [^68Ga]AJ647 (around 10 μCi) was added to a solution of 1-octanol (200 μl) mixed with phosphate-buffered saline (PBS) (190 μl) in a 1.5-ml centrifuge tube. After the mixture was vigorously shaken and vortexed, it was centrifuged at 3000 rpm for 5 min. Aliquots (10 μl) were removed from both phases, and the radioactivity was measured on an automated gamma counter (1282 Compugamma CS, Pharmacia/LKB Nuclear Inc., Gaithersburg, MD). The logD was calculated as the average log ratio value of the radioactivity in the 1-octanol fraction and the PBS fraction from the three samples.

enfortumab vedotin [EV]
effect on [^68Ga]AJ647 binding (SCaBER cells [1]): significantly reduced [^68Ga]AJ647 binding
mice showing a drop in [^68Ga]AJ647 uptake (HT1376 tumor xenograft; EV 6 mg/kg): 5 of 10
mice showing a drop in [^68Ga]AJ647 uptake (HT1376 tumor xenograft; EV 15 mg/kg): 9 of 10
final tumor volume (HT1376 tumor xenograft; EV-treated mice with higher TE, in mm³ (unit assumed)): 324.9 ± 194.6
final tumor volume (HT1376 tumor xenograft; EV-treated mice with less than 30% TE): 759.4 ± 455
tumor growth (HT1376 tumor xenograft; single dose EV 6 or 15 mg/kg, n = 10 per group, more pronounced at 15 mg/kg): Tumor growth inhibition was observed in both groups
effect on [^68Ga]AJ647 binding (T24 cells): but not in Nectin-4–negative T24 cells

CSCC[C@@H]1NC(=O)[C@@H]2CSCCC(=O)N3CN(CN(C3)C(=O)CCSC[C@H](NC(=O)CCOCCOCCOCCOCCOCCOCCOCCOCCOCCOCCOCCOCCNC(=O)CN3CCN(CC(=O)O)CCN(CC(=O)O)CC3)C(=O)N3CCC[C@H]3C(=O)N[C@@H](Cc3cccc4ccccc34)C(=O)N[C@@H](CC(=O)O)C(=O)N2)C(=O)CCSC[C@@H](C(N)=O)NC(=O)[C@H](Cc2c[nH]c3ccccc23)NC(=O)[C@@H]2C[C@@H](O)CN2C(=O)[C@@H]2CCCN2C(=O)[C@H]([C@@H](C)O)NC(=O)[C@H](CO)NC(=O)[C@H](Cc2c[nH]c3ccccc23)NC(=O)[C@@H](CC(=O)O)NC(=O)[C@H](CCCCNC(=N)N)NC1=O [[^68Ga]AJ647, metal not drawn]
[^68Ga]AJ647 uptake (SCaBER cells [2]): 1.6 ± 0.13 %IA
[^68Ga]AJ647 uptake (UC9 cells): 2.2 ± 0.48 %IA
logD (physchem): -2.06 ± 0.17
